“Also recorded” adds a separate entry of the source.
Assays:
hROCK1 = hROCK1 (Homo sapiens, UniProt Q13464); experiment: HotSpot Kinase Assay, ROCK1 inhibition (Reaction Biology Corp.); type: biochemical
Protocol: (§1) The HotSpot Kinase Assay was used for compound screening on protein kinases, as already reported. The assay was performed in a base reaction buffer containing 20 mM Hepes (pH 7.5), 10 mM MgCl2, 1 mM EGTA, 0.01% Brij-35, 0.02 mg/mL BSA, 0.1 mM Na3VO4, 2 mM DTT, and 1% DMSO, with the required cofactors added individually to each kinase reaction. The substrate was prepared in freshly made base reaction buffer, and cofactors were added accordingly. The indicated kinase was then delivered into the substrate solution and gently mixed. Test compounds, dissolved in 100% DMSO, were added to the kinase reaction mixture using acoustic technology (Echo550; nanoliter range), followed by incubation for 20 min at room temperature. The reaction was initiated by adding ^33P-ATP (1 μM) and incubating for 2 h at room temperature. Kinase activity was detected using the P81 filter-binding method.

[1] = previously reported; cited from earlier work
hROCK2 = hROCK2 (Homo sapiens, UniProt O75116); experiment: HotSpot Kinase Assay, ROCK2 inhibition (Reaction Biology Corp.); type: biochemical
Protocol: as §1

ROCK2 = settings: introduction, literature values; read-out: ROCK2 IC50 of approved ROCK inhibitors; cited from earlier work
ROCK1 = settings: introduction, literature values; read-out: ROCK1 IC50 of approved ROCK inhibitors; cited from earlier work
[2] = test system: mouse hippocampal neurons; settings: primary cultures of mouse hippocampal neurons; cited from earlier work
PKCα = PKCα (Homo sapiens, UniProt P17252); experiment: HotSpot Kinase Assay, AGC kinase selectivity, PKCα; type: biochemical
Protocol: as §1

SH-SY5Y cells = experiment: MTT cell viability, SH-SY5Y cell line; type: cell-based; settings: 0.1 to 5 μM, 24 h
Protocol: (§2) Prior to the experiments, SH-SY5Y cells were cultured in DMEM/F12 plus 10% FBS (Fetal bovine serum, Invitrogene). […] The cells were incubated for 24 h under these conditions.
(§3) C6 and SH-SY5Y cells were plated in a 96-well plate with 1 × 10^4 cells per well. Cell morphology was observed using an EVOS phase-contrast microscope (Invitrogen, ThermoFisher Scientific, USA), and viability was evaluated using a 3-[4,5-dimethylthiazol-2-yl]-2,5-diphenyltetrazolium bromide (MTT) reduction assay. After 24 h of treatment, cells were incubated with 0.5 mg/mL MTT dye for 3 h at 37 °C and 5% CO2. This assay evaluates the labeling activity of mitochondrial dehydrogenases such as succinate dehydrogenase by reducing MTT (yellow) to a purple formazan salt. The culture media were removed, and the crystals were dissolved in 150 μL DMSO. The intensity of formazan was measured using a GloMax spectrophotometer (Promega) at a wavelength of 560 nm.

[3] = test system: murine primary astrocytes; experiment: GFAP and C3 immunocytochemistry in LPS-treated primary cortical astrocytes; type: cell-based, C57BL/6 mice (Mus musculus); settings: 24 h; for C3 immunostaining in LPS-treated astrocyte cultures: 1 μM ruxolitinib, LPS 10 μg/mL
Protocol: Primary cortical astrocyte cultures were prepared from brains of P0–3 C57BL/6 mice as described by Matias et al. The meninges of the brain were removed to cortex desiccation in Gey’s buffer, and the cerebral cortex was maintained in DMEM/F12, supplemented with 10% FBS. […] After 24 h, cultures were washed and fixed.
Astrocyte cultures were fixed with 4% PFA in phosphate-buffered saline (PBS, pH 7.4) for 15 min, and nonspecific sites were blocked with 3% BSA, 5% normal goat serum, and 0.2% Triton X-100 diluted in PBS for 1 h, before incubation with the rabbit anti-GFAP (1:1,000, DAKO Cytomation, Cat. Z0334) and the rat anti-C3 (1:100, Abcam, Cat. ab11862) at 4 °C overnight. Subsequently, the cells were thoroughly washed with PBS and incubated with secondary antibodies at room temperature for 2 h.

C6 cells = experiment: MTT cell viability, C6 glioma cell line; type: cell-based; settings: 0.1 to 5 μM, 24 h
Protocol: as §2, §3

Sequence of hROCK1 (Q13464 whole entry): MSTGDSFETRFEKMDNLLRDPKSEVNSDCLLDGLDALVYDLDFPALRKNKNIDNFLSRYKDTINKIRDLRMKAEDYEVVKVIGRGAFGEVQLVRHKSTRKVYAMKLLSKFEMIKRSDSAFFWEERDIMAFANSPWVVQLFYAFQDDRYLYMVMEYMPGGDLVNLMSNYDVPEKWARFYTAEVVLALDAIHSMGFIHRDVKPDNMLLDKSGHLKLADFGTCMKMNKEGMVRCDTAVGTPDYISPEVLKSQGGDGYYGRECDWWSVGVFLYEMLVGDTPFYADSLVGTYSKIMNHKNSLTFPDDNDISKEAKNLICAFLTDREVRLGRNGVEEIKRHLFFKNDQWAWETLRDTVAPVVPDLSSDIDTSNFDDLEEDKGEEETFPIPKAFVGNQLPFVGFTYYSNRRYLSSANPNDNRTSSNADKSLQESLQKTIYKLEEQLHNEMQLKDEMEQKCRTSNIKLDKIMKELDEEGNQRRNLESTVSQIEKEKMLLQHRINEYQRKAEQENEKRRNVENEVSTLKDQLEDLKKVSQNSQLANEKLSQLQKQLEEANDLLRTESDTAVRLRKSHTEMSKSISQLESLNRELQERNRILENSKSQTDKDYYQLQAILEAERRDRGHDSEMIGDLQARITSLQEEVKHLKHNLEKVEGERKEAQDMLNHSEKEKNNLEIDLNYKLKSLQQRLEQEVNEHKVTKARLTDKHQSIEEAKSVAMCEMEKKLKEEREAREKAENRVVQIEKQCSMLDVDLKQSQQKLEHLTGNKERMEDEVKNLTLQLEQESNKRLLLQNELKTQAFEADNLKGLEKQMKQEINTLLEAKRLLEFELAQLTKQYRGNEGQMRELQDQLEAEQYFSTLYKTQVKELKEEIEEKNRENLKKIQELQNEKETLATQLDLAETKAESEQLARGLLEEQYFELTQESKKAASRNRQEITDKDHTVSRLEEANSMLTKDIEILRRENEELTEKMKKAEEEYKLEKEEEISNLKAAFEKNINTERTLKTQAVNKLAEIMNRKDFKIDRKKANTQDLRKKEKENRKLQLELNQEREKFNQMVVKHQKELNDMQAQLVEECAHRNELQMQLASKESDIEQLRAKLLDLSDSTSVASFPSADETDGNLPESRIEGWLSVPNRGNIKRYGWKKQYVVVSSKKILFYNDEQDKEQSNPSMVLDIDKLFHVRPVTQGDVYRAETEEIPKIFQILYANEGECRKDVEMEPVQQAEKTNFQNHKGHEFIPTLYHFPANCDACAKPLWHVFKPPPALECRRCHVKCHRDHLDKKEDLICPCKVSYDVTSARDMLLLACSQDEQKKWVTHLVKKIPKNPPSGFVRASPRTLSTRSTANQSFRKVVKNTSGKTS
Sequence of hROCK2 (O75116 whole entry): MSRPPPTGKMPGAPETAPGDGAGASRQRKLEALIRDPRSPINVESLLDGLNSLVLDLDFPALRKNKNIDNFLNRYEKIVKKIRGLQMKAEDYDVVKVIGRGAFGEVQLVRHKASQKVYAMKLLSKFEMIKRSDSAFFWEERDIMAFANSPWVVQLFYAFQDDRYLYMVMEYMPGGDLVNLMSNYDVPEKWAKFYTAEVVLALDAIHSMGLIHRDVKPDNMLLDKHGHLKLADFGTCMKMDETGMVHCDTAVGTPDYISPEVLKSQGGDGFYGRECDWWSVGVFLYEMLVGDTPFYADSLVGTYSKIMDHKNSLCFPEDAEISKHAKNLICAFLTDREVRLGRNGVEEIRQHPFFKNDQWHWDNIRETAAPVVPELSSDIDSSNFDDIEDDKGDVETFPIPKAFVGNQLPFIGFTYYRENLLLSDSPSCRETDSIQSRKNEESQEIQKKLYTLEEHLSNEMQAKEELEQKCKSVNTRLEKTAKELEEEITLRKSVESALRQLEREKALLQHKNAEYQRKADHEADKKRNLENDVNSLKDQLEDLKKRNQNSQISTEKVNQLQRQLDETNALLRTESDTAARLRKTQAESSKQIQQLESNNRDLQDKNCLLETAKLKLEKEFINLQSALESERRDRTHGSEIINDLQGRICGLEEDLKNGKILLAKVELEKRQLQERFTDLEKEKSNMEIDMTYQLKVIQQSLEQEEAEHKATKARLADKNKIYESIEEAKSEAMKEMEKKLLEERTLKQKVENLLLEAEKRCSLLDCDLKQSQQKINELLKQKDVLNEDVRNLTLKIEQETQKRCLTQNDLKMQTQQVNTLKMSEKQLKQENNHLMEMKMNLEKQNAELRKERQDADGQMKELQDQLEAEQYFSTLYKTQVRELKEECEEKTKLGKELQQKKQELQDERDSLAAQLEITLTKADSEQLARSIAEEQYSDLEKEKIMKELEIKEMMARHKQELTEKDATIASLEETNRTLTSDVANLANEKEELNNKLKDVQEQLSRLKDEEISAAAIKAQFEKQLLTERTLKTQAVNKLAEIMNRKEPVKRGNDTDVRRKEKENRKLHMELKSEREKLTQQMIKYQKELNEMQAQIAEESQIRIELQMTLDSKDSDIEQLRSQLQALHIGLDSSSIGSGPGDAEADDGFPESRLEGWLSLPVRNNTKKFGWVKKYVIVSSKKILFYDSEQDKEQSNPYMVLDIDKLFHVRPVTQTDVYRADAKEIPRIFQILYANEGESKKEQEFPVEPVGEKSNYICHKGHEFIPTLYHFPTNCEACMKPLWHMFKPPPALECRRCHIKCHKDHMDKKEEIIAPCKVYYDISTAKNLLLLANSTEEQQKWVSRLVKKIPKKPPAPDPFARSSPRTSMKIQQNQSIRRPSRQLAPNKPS

IC50 (hROCK1) [nM] | IC50 (hROCK2) [nM] | Compound | IC50 (ROCK2) [nM] | IC50 (ROCK1) [nM] | also measured
19 | 11 | CCS(=O)(=O)N1CC(CC#N)(n2cc(-c3ncnc4[nH]ccc34)cn2)C1 [Baricitinib (37), baricitinib] |  |  | crossing of the blood-brain barrier (BBB) [1]: cross the blood-brain barrier (BBB)
 |  | O=C1CCc2cc(OCCCCc3nnnn3C3CCCCC3)ccc2N1 [Cilostazole] |  |  | ROCK1 % (30 µM), printed under IC50 ROCK1 head (hROCK1; 30 µM): 3%; ROCK2 % (30 µM), printed under IC50 ROCK2 head (hROCK2; 30 µM): 8%
 |  | O=S(=O)(c1cccc2cnccc12)N1CCCNCC1 [Fasudil (2), Fasudil] |  | […] | levels of Tau phosphorylation [2]: decreased the levels of Tau phosphorylation
18800 | 29200 | O=C(CCNNC(=O)c1ccncc1)NCc1ccccc1 [Nialamide (40), nialamide] |  |  | 
 |  | C[C@H]1CNCCCN1S(=O)(=O)c1cccc2cncc(F)c12 [Ripasudil (3), Ripasudil] | 19 | 51 | 
 |  | N#CC[C@H](C1CCCC1)n1cc(-c2ncnc3[nH]ccc23)cn1 [Ruxolitinib (36), ruxolitinib] |  |  | IC50 (PKCα): 1250 nM; cell viability (MTT), SH-SY5Y (neuronal cell line) (SH-SY5Y cells; listed as ruxolitinib): No significant impact on the viability; cell viability (MTT), SH-SY5Y (neuronal cell line) (SH-SY5Y cells; listed as ruxolitinib (36)): did not adversely affect the viability; also recorded: does not affect the viability; crossing of the blood-brain barrier (BBB) [1]: cross the blood-brain barrier (BBB); C3 immunostaining in LPS-treated astrocyte cultures ([3]; listed as ruxolitinib): decreased C3 immunostaining; also recorded: reversed this event; C3 immunostaining in LPS-treated astrocyte cultures ([3]; listed as ruxolitinib (36)): reduce C3 immunolabeling; GFAP intermediate filament organization and process extension of astrocytes ([3]; 1 μM): did not impact intermediate filament organization and process extension; cell viability (MTT), C6 glioma (astrocytic cell line) (C6 cells; listed as ruxolitinib): No significant impact on the viability; cell viability (MTT), C6 glioma (astrocytic cell line) (C6 cells; listed as ruxolitinib (36)): did not adversely affect the viability; also recorded: does not affect the viability
12900 | 856 | COc1cc2nccc(Oc3ccc(NC(=O)Nc4cc(C)on4)c(Cl)c3)c2cc1OC [Tivozanib (39), tivozanib] |  |  | selectivity for ROCK2 over ROCK1 (hROCK2; from the IC50 values): 15 fold
51500 | 18600 | Cc1cc(Nc2ncnc3ccc(NC4=NC(C)(C)CO4)cc23)ccc1Oc1ccn2ncnc2c1 [Tucatinib (41), tucatinib] |  |  | 
